According to patent US20230330067A1, “NOVEL THIOHYDANTOIN DERIVATIVES AND USES THEREOF” (CELROS BIOTECH, priority 2020, published 2023):

Experiments:
[1] = molecular target: T1, human Nox4 (Homo sapiens, UniProt Q9NPH5); experiment: Lucigenin chemiluminescence assay, human Nox4; type: biochemical; settings: Drosophila membranes expressing hNox4; average of three assays
T1 construct: made in house; host or cells: transgenic Drosophila (UAS-hNox4/UAS-dDuox-RNAi; Da-GAL4/+), membranes from fly homogenate
T1 sequence (Q9NPH5 1-578): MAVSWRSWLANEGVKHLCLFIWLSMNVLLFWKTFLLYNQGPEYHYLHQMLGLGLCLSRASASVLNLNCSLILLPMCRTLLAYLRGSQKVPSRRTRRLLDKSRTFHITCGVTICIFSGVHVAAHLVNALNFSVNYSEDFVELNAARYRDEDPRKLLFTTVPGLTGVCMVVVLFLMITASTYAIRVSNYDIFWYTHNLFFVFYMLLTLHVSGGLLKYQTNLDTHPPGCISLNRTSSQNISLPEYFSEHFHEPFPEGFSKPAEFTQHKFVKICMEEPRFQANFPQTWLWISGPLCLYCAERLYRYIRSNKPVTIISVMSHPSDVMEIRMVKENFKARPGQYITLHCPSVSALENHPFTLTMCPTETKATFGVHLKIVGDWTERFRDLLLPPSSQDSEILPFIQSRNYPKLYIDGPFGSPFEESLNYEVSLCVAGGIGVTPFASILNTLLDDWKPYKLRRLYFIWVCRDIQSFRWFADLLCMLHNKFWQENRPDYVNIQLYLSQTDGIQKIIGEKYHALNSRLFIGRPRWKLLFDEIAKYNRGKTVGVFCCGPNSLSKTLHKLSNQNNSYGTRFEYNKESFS
From the text: (§1) Human Nox isozymes were provided from transgenic flies expressing human Nox isozymes under the daughterless (Da)-GAL4 promoter. The genotype of each fly line is shown below. • 1) Human Nox1: UAS-hNox1/UAS-dDuox-RNAi; Da-GAL4/+ • 2) Human Nox2: UAS-hNox2/UAS-dDuox-RNAi; Da-GAL4/+ • 3) Human Nox4: UAS-hNox4/UAS-dDuox-RNAi; Da-GAL4/+
(§2) Transgenic flies were homogenized with PBS containing protease inhibitors (Aprotinin and Leupeptin) to obtain Drosophila membranes of each Nox isozyme. The membranes were incubated with compounds (100 μM, 10 μM, 1 μM, 0.1 μM, 0.01 μM, 0.001 μM, and 0 μM) for 10 min on a shaker. After that, a mixture of 500 μM NADPH (beta-nicotinamide adenine dinucleotide 2′-phosphate reduced tetrasodium salt hydrate; Sigma-Aldrich) and 400 μM lucigenin (N,N′-dimethyl-9,9′-biacridinium dinitrate; Sigma-Aldrich) in 1X HEPES (4-(2-hydroxyethyl)-1-piperazineethanesulfonic acid) buffer was added to the membrane. Lucigenin chemiluminescence was detected at 1 minute intervals for 10 min using a multimode microplate reader (SpectraMax iD3, Molecular Devices). IC50 values were calculated with Graph-Pad Prism 5 (GraphPad Software).
(§3) Lucigenin chemiluminescence assays were performed with Drosophila membranes expressing hNox1, hNox2 and hNox4. The assay was repeated three times and the average of the IC50 values was determined.

[2] = molecular target: T2, human Nox2 (Homo sapiens, UniProt P04839); experiment: Lucigenin chemiluminescence assay, human Nox2; type: biochemical; settings: Drosophila membranes expressing hNox2; average of three assays
T2 construct: made in house; host or cells: transgenic Drosophila (UAS-hNox2/UAS-dDuox-RNAi; Da-GAL4/+), membranes from fly homogenate
T2 sequence (P04839 2-570 limits assumed): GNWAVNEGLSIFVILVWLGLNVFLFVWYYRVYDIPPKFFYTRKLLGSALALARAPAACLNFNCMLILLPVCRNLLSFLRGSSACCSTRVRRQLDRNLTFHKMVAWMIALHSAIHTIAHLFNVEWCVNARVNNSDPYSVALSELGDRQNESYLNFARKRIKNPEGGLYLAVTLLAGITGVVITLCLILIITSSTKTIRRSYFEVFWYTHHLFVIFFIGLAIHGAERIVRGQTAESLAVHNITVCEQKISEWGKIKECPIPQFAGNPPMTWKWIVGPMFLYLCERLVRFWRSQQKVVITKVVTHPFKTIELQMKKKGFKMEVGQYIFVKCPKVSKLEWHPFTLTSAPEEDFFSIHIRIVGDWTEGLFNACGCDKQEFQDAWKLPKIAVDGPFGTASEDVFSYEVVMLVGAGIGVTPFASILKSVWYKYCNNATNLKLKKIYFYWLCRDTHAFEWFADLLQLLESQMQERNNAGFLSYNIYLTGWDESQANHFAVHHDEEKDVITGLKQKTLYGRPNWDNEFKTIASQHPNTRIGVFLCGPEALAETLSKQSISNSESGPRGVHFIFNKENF
From the text: as §1, §2, §3

[3] = test system: PFF-induced Parkinson's disease; experiment: PFF-induced Parkinson's disease mice; type: in vivo, C57BL/6 mice; settings: 10 mg/kg intraperitoneal daily for 3 months
Procedure: In order to develop preformed fibrils (PFF)-induced Parkinson's disease, 8-12 week old C57BL/6 mice were stereotaxically inoculated with 5 μg of PFF into the right dorsal striatum (AP+0.2 mm, […], DV 2.6 mm). Five months post single inoculation of PFF, animals were intraperitoneally injected with the compound of Example 2 at 10 mg/kg daily for 3 months. […] The maximum force of the mouse forelimb was recorded with a grip strength meter. The single inoculation of PFF impaired the grip strength of the forelimb.

[4] = test system: BV2 cells; experiment: Nox inhibitory effect in BV2 cells (LPS-induced ROS generation, lucigenin chemiluminescence); type: cell-based; settings: BV2 cells pre-treated 30 minutes, 0-10000 nM, then LPS 200 ng/ml; FIG. 3
Procedure: BV2 cells were washed with Hank's balanced salt solution (HBSS) and incubated in HBSS at 37° C. for 30 minutes. Then, the cells were treated with the compound (compound of Example 1 or compound of Example 2) at various concentrations (0 nM, 1 nM, 10 nM, 100 nM, 1000 nM, and 10000 nM). After 30 minutes, 200 ng/ml of lipopolysaccharide (LPS) and 200 μM of lucigenin were added to the cells. Lucigenin chemiluminescence was detected at 10 second intervals for 15 minutes using a luminometer (GLOMA, Promega).
Specifically, BV2 cells were pre-treated with Compound (A) of Example 1 or Compound (B) of Example 2 for 30 minutes and generation of reactive oxygen species (ROS) was detected after treatment with LPS (200 ng/ml). Data are expressed as mean ±SD (N=3).

[5] = molecular target: T3, human Nox1 (Homo sapiens, UniProt Q9Y5S8); experiment: Lucigenin chemiluminescence assay, human Nox1; type: biochemical; settings: Drosophila membranes expressing hNox1; average of three assays
T3 construct: made in house; host or cells: transgenic Drosophila (UAS-hNox1/UAS-dDuox-RNAi; Da-GAL4/+), membranes from fly homogenate
T3 sequence (Q9Y5S8 1-564): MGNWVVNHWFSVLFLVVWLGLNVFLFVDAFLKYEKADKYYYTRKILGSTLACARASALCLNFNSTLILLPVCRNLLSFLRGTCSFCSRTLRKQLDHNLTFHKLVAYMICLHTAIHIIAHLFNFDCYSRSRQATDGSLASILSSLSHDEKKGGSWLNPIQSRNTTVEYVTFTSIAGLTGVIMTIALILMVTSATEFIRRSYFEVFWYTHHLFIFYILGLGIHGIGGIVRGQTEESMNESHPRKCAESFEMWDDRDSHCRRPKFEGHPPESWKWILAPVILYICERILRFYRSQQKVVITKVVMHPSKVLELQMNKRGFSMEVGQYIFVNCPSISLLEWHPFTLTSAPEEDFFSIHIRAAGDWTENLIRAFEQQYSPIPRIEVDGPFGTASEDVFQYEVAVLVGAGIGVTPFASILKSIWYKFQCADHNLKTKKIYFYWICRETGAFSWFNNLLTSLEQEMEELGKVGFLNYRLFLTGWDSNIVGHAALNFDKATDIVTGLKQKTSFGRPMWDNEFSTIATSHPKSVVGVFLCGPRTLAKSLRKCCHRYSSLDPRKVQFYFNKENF
From the text: as §1, §2, §3

With CN1C(=S)N(Cc2ccccc2)C(=O)/C1=C\c1ccc(N(C)CCCO)cc1 [Example 5, (E)-3-benzyl-5-(4-((3-hydroxypropyl)(methyl)amino)benzylidene)-1-methyl-2-thioxoimidazolidin-4-one] the IC50 [1] was 0.907 µM and the IC50 [2] was 1.35 µM.

In the case of CN1C(=S)N(C2CCCCC2)C(=O)/C1=C\c1ccc(N(C)CCO)cc1O [Example 4, (E)-3-cyclohexyl-5-(2-hydroxy-4-((2-hydroxyethyl)(methyl)amino)benzylidene)-1-methyl-2-thioxoimidazolidin-4-one], the IC50 [1] is reported as 1.4 µM and the IC50 [2] is reported as 0.52 µM.

With CC(C)CN1C(=O)C(=Cc2ccc(N(C)CCO)cc2)N(C)C1=S (mixture of isomers) [Example 2, 5-(4-((2-hydroxyethyl)(methyl)amino)benzylidene)-3-isobutyl-1-methyl-2-thioxoimidazolidin-4-one] the “amount of α-synuclein in the hippocampus (HP CA1, HP CA3)” value ([3]; five months post PFF inoculation, FIG. 11) was “significantly decreased”, the “astrocyte pathology (GFAP immuno-positive astrocytes) in the prefrontal cortex (Pfcx)” value ([3]; FIG. 12) was “reduced GFAP immuno-positive astrocytes” and the “microglia pathology (Iba1 immunopositive activated microglia) in Pfcx and HP CA3” value ([3]; FIG. 13) was “reduced Ibal immunopositive activated microglia”. For the same molecule, the “neuromuscular function (forelimb grip strength)” value ([3]; FIG. 14) was “improved the grip strength”, the IC50 [1] was 1.72 µM and the “generation of reactive oxygen species (ROS)” value [4] was “significant inhibition of ROS generation”. It also gave an IC50 [2] of 1.84 µM and an IC50 [5] of 1.49 µM.

COc1cc(N(C)CCCO)ccc1/C=C1\C(=O)N(Cc2ccccc2)C(=S)N1C [Example 8, (E)-3-benzyl-5-(4-((3-hydroxypropyl)(methyl)amino)-2-methoxybenzylidene)-1-methyl-2-thioxoimidazolidin-4-one] showed an IC50 [1] of 0.761 µM and an IC50 [2] of 1.9 µM.

CN1C(=S)N(Cc2ccccc2)C(=O)/C1=C\c1ccc(N(C)CCO)cc1O [Example 7, (E)-3-benzyl-5-(2-hydroxy-4-((2-hydroxyethyl)(methyl)amino)benzylidene)-1-methyl-2-thioxoimidazolidin-4-one] was tested, and the IC50 [1] was 0.665 µM and the IC50 [2] was 0.773 µM.

CN1C(=S)N(CCc2ccccc2)C(=O)/C1=C\c1ccc(N(C)CCO)cc1 [Example 6, (E)-5-(4-((2-hydroxyethyl)(methyl)amino)benzylidene)-1-methyl-3-phenethyl-2-thioxoimidazolidin-4-one] showed an IC50 [1] of 1.8 µM and an IC50 [2] of 1.96 µM.

Molecule COc1cc(N(C)CCO)ccc1/C=C1\C(=O)N(C2CCCCC2)C(=S)N1C [Example 3, (E)-3-cyclohexyl-5-(4-((2-hydroxyethyl)(methyl)amino)-2-methoxybenzylidene)-1-methyl-2-thioxoimidazolidin-4-one] has an IC50 [1] of 1.72 µM and an IC50 [2] of 1.58 µM.
